From the supplement of paper PMC10307832

Experiments:
Test in all cases: relative viability (nuclei count vs DMSO), 5 days (fraction); higher = more cells survive
201T = test system: 201T
Method in brief: (§1)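 One day after seeding in 1536-well plates, lung cancer cell lines were dosed by pin tool. Dosing was either single-drug or a fixed anchor-drug dose plus five library-drug doses (not always all listed) in √10 steps. After 5 days, nuclei were stained in one fix-and-stain step and counted on 4× images, and relative viability is the nuclei count of treated wells over that of vehicle wells, given as the median of duplicate plates.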

BEN = test system: BEN
Method in brief: as §1

HCC-827 = test system: HCC-827
Method in brief: as §1

LCLC-103H = test system: LCLC-103H
Method in brief: as §1

LCLC-97TM1 = test system: LCLC-97TM1
Method in brief: as §1

LXF-289 = test system: LXF-289
Method in brief: as §1

NCI-H1395 = test system: NCI-H1395
Method in brief: as §1

NCI-H1437 = test system: NCI-H1437
Method in brief: as §1

NCI-H1650 = test system: NCI-H1650
Method in brief: as §1

NCI-H1792 = test system: NCI-H1792
Method in brief: as §1

NCI-H1793 = test system: NCI-H1793
Method in brief: as §1

NCI-H1944 = test system: NCI-H1944
Method in brief: as §1

NCI-H2087 = test system: NCI-H2087
Method in brief: as §1

NCI-H2405 = test system: NCI-H2405
Method in brief: as §1

NCI-H3122 = test system: NCI-H3122
Method in brief: as §1

NCI-H322M = test system: NCI-H322M
Method in brief: as §1

NCI-H647 = test system: NCI-H647
Method in brief: as §1

NCI-H727 = test system: NCI-H727
Method in brief: as §1

RERF-LC-KJ = test system: RERF-LC-KJ
Method in brief: as §1

SK-LU-1 = test system: SK-LU-1
Method in brief: as §1

With `CCN(CC)CCCCNc1ncc2cc(-c3cc(OC)cc(OC)c3)c(NC(=O)NC(C)(C)C)nc2n1` + Nc1ncn([C@H]2C[C@H](O)[C@@H](CO)O2)c(=O)n1 [Decitabine] (partner 2 µM) the relative viability (201T; first compound 0.01 µM) was 0.864, the relative viability (201T; first compound 0.03162 µM) was 0.847 and the relative viability (201T; first compound 0.1 µM) was 0.86. It also gave a relative viability (201T; first compound 0.3162 µM) of 0.857, a relative viability (201T; first compound 1 µM) of 0.83 and a relative viability (BEN; first compound 0.01 µM) of 0.691. The relative viability (BEN; first compound 0.03162 µM) was 0.728, the relative viability (BEN; first compound 0.1 µM) was 0.808 and the relative viability (BEN; first compound 0.3162 µM) was 0.797. For the same compound, the relative viability (BEN; first compound 1 µM) was 0.572, the relative viability (HCC-827; first compound 0.01 µM) was 0.311 and the relative viability (HCC-827; first compound 0.03162 µM) was 0.369. It also gave a relative viability (HCC-827; first compound 0.1 µM) of 0.346, a relative viability (HCC-827; first compound 0.3162 µM) of 0.376 and a relative viability (HCC-827; first compound 1 µM) of 0.284. For the same compound, the relative viability (LCLC-103H; first compound 0.01 µM) was 0.775, the relative viability (LCLC-103H; first compound 0.03162 µM) was 0.782 and the relative viability (LCLC-103H; first compound 0.1 µM) was 0.758. For the same compound, the relative viability (LCLC-103H; first compound 0.3162 µM) was 0.809, the relative viability (LCLC-103H; first compound 1 µM) was 0.602 and the relative viability (LCLC-97TM1; first compound 0.01 µM) was 0.269. For the same compound, the relative viability (LCLC-97TM1; first compound 0.03162 µM) was 0.251, the relative viability (LCLC-97TM1; first compound 0.1 µM) was 0.321 and the relative viability (LCLC-97TM1; first compound 0.3162 µM) was 0.272. The relative viability (LCLC-97TM1; first compound 1 µM) was 0.255, the relative viability (LXF-289; first compound 0.01 µM) was 0.336 and the relative viability (LXF-289; first compound 0.03162 µM) was 0.364. The relative viability (LXF-289; first compound 0.1 µM) was 0.363, the relative viability (LXF-289; first compound 0.3162 µM) was 0.424 and the relative viability (LXF-289; first compound 1 µM) was 0.377. It also gave a relative viability (NCI-H1395; first compound 0.01 µM) of 0.8, a relative viability (NCI-H1395; first compound 0.03162 µM) of 0.685 and a relative viability (NCI-H1395; first compound 0.1 µM) of 0.743. It also gave a relative viability (NCI-H1395; first compound 0.3162 µM) of 0.735, a relative viability (NCI-H1395; first compound 1 µM) of 0.598 and a relative viability (NCI-H1437; first compound 0.01 µM) of 0.599. For the same compound, the relative viability (NCI-H1437; first compound 0.03162 µM) was 0.541, the relative viability (NCI-H1437; first compound 0.1 µM) was 0.592 and the relative viability (NCI-H1437; first compound 0.3162 µM) was 0.58. It also gave a relative viability (NCI-H1437; first compound 1 µM) of 0.578, a relative viability (NCI-H1650; first compound 0.01 µM) of 0.398 and a relative viability (NCI-H1650; first compound 0.03162 µM) of 0.381. It also gave a relative viability (NCI-H1650; first compound 0.1 µM) of 0.397, a relative viability (NCI-H1650; first compound 0.3162 µM) of 0.368 and a relative viability (NCI-H1650; first compound 1 µM) of 0.384. It also gave a relative viability (NCI-H1792; first compound 0.01 µM) of 0.522, a relative viability (NCI-H1792; first compound 0.03162 µM) of 0.552 and a relative viability (NCI-H1792; first compound 0.1 µM) of 0.536. The relative viability (NCI-H1792; first compound 0.3162 µM) was 0.489, the relative viability (NCI-H1792; first compound 1 µM) was 0.479 and the relative viability (NCI-H1793; first compound 0.01 µM) was 0.496. The relative viability (NCI-H1793; first compound 0.03162 µM) was 0.464, the relative viability (NCI-H1793; first compound 0.1 µM) was 0.56 and the relative viability (NCI-H1793; first compound 0.3162 µM) was 0.472. It also gave a relative viability (NCI-H1793; first compound 1 µM) of 0.352, a relative viability (NCI-H1944; first compound 0.01 µM) of 0.489 and a relative viability (NCI-H1944; first compound 0.03162 µM) of 0.435. For the same compound, the relative viability (NCI-H1944; first compound 0.1 µM) was 0.427, the relative viability (NCI-H1944; first compound 0.3162 µM) was 0.489 and the relative viability (NCI-H1944; first compound 1 µM) was 0.477. The relative viability (NCI-H2087; first compound 0.01 µM) was 0.314, the relative viability (NCI-H2087; first compound 0.03162 µM) was 0.29 and the relative viability (NCI-H2087; first compound 0.1 µM) was 0.302. It also gave a relative viability (NCI-H2087; first compound 0.3162 µM) of 0.284, a relative viability (NCI-H2087; first compound 1 µM) of 0.317 and a relative viability (NCI-H2405; first compound 0.01 µM) of 0.778. The relative viability (NCI-H2405; first compound 0.03162 µM) was 0.728, the relative viability (NCI-H2405; first compound 0.1 µM) was 0.767 and the relative viability (NCI-H2405; first compound 0.3162 µM) was 0.765. The relative viability (NCI-H2405; first compound 1 µM) was 0.702, the relative viability (NCI-H3122; first compound 0.01 µM) was 0.493 and the relative viability (NCI-H3122; first compound 0.03162 µM) was 0.472. For the same compound, the relative viability (NCI-H3122; first compound 0.1 µM) was 0.418, the relative viability (NCI-H3122; first compound 0.3162 µM) was 0.448 and the relative viability (NCI-H3122; first compound 1 µM) was 0.42. It also gave a relative viability (NCI-H322M; first compound 0.01 µM) of 0.691, a relative viability (NCI-H322M; first compound 0.03162 µM) of 0.767 and a relative viability (NCI-H322M; first compound 0.1 µM) of 0.687. It also gave a relative viability (NCI-H322M; first compound 0.3162 µM) of 0.696, a relative viability (NCI-H322M; first compound 1 µM) of 0.663 and a relative viability (NCI-H647; first compound 0.01 µM) of 0.429. It also gave a relative viability (NCI-H647; first compound 0.03162 µM) of 0.383, a relative viability (NCI-H647; first compound 0.1 µM) of 0.489 and a relative viability (NCI-H647; first compound 0.3162 µM) of 0.349. For the same compound, the relative viability (NCI-H647; first compound 1 µM) was 0.361, the relative viability (NCI-H727; first compound 0.01 µM) was 0.752 and the relative viability (NCI-H727; first compound 0.03162 µM) was 0.871. The relative viability (NCI-H727; first compound 0.1 µM) was 0.871, the relative viability (NCI-H727; first compound 0.3162 µM) was 1.09 and the relative viability (NCI-H727; first compound 1 µM) was 0.717. It also gave a relative viability (RERF-LC-KJ; first compound 0.01 µM) of 0.697, a relative viability (RERF-LC-KJ; first compound 0.03162 µM) of 0.687 and a relative viability (RERF-LC-KJ; first compound 0.1 µM) of 0.74. The relative viability (RERF-LC-KJ; first compound 0.3162 µM) was 0.717, the relative viability (RERF-LC-KJ; first compound 1 µM) was 0.603 and the relative viability (SK-LU-1; first compound 0.01 µM) was 0.628. For the same compound, the relative viability (SK-LU-1; first compound 0.03162 µM) was 0.608, the relative viability (SK-LU-1; first compound 0.1 µM) was 0.59 and the relative viability (SK-LU-1; first compound 0.3162 µM) was 0.705. It also gave a relative viability (SK-LU-1; first compound 1 µM) of 0.448.
